ChEMBL document CHEMBL1126371, “Indazole and indoline as aromatic bioisosteres in the imidazole class of serotonin 5-HT3 receptor antagonists” (Bioorg Med Chem Lett, 1992)
Values belong to the molecule of their own block, whether it stands above or below them. Active and inactive are the calls of the source. No cut-off for these calls is given here.

How the values were obtained:
[1] = test system: Rattus norvegicus; assay: Dose required for inhibition of bradycardia induced by a submaximal dose (iv) of 5-HT in 5 rats; format: functional; conditions: read-out: ID50 (the source's name)
[2] = test system: Rattus norvegicus; assay: Time required to achieve 50% recovery of Bezold-Jarisch reflex in 5 rats at a dose of 6 ug/kg, iv; format: functional
[3] = test system: Rattus norvegicus; assay: Dose required for inhibition of bradycardia induced by a submaximal dose (iv) of 5-HT in 4 rats; format: functional; conditions: read-out: ID50 (the source's name)
[4] = test system: Rattus norvegicus; assay: Percent maximum inhibition against Bezold-Jarisch reflex in 5 rats at a dose of 6 ug/kg, iv; format: functional
[5] = target: T1, 5-hydroxytryptamine receptor 1A (Rattus norvegicus) (UniProt P19327); assay: Tested for the effect on binding at 5-hydroxytryptamine 1A receptor; No activity
T1 sequence (whole entry): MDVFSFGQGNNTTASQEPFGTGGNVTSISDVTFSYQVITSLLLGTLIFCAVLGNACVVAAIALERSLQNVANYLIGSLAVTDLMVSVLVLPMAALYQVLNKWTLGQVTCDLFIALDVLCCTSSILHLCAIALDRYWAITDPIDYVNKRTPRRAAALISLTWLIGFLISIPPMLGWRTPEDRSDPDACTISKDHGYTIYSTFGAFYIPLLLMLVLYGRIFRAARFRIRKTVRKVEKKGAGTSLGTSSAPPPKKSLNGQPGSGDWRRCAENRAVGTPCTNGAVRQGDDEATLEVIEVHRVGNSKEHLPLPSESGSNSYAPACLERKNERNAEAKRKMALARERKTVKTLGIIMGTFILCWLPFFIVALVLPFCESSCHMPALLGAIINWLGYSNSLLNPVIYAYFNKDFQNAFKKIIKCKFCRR

[6] = target: T2, 5-hydroxytryptamine receptor 2C (Rattus norvegicus) (UniProt P08909); assay: Tested for the effect on binding at 5-hydroxytryptamine 1C receptor; No activity
T2 sequence (whole entry): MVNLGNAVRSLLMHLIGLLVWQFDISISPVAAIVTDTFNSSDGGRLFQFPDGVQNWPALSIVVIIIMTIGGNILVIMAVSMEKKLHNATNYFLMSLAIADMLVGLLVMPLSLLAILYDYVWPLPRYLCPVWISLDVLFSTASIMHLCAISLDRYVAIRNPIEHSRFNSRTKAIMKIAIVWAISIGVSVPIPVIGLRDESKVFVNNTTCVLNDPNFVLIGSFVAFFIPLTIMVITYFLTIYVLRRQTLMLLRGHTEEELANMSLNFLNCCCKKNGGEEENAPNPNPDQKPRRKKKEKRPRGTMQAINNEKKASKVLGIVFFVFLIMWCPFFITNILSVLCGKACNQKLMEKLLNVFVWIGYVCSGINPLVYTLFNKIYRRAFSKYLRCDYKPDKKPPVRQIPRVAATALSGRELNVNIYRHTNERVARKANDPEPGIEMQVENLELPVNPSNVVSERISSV

[7] = target: Serotonin 2 (5-HT2) receptor (Rattus norvegicus) (UniProt P30994+P08909+P14842); assay: Tested for the effect on binding at 5-hydroxytryptamine 2 receptor; No activity; format: protein assay
Chain of Serotonin 2 (5-HT2) receptor (Rattus norvegicus) (P14842 whole entry, looked up, one chain of several): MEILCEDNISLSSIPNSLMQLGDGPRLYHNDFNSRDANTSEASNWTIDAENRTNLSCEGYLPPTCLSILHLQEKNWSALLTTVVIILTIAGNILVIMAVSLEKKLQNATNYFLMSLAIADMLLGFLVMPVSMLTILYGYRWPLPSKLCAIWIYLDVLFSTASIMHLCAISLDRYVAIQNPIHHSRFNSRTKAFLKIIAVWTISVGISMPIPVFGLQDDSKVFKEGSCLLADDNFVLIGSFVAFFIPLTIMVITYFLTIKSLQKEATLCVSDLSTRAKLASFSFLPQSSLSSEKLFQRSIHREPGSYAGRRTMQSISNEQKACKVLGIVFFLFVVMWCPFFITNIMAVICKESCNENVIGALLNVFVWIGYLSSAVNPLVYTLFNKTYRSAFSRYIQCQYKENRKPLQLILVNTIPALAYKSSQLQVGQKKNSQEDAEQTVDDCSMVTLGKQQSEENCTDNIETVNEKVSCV
Chain of Serotonin 2 (5-HT2) receptor (Rattus norvegicus) (P30994 whole entry, looked up, one chain of several): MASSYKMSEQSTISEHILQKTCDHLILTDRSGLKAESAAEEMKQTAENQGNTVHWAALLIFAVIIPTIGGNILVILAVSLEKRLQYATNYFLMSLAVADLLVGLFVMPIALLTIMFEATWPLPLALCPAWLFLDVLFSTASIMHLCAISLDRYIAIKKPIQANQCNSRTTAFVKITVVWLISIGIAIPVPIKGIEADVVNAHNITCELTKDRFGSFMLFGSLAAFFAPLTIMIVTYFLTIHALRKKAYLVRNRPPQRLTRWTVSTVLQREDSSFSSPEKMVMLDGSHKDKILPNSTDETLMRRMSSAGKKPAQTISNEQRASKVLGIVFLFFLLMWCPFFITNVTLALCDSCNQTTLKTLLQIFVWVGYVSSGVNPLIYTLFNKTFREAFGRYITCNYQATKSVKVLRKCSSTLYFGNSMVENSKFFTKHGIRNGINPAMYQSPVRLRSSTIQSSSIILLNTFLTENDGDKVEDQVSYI

[8] = target: 5-hydroxytryptamine receptor 1D (Rattus norvegicus) (UniProt P28565); assay: Tested for the effect on binding at 5-hydroxytryptamine 1D receptor; No activity
Chain of 5-hydroxytryptamine receptor 1D (Rattus norvegicus) (P28565 whole entry): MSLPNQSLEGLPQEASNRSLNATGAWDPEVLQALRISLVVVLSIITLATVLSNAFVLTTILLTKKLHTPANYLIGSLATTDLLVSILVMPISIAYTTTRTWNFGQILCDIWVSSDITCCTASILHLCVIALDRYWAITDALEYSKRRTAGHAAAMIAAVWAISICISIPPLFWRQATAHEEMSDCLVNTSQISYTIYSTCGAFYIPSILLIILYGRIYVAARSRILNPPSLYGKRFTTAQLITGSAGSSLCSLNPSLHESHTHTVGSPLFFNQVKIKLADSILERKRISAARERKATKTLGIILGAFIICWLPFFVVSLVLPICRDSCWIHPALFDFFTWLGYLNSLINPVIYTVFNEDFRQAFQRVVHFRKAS

[9] = target: Serotonin 3 (5-HT3) receptor; assay: Tested for antagonistic activity on 5-hydroxytryptamine 3 receptor mediated effects of 5-HT in guinea pig isolated ileum; format: functional, tissue-based, Cavia porcellus
[10] = target: 5-hydroxytryptamine receptor 4 (Rattus norvegicus) (UniProt Q62758); assay: Tested for the effect on binding at 5-hydroxytryptamine 4 receptor; No activity
Chain of 5-hydroxytryptamine receptor 4 (Rattus norvegicus) (Q62758 whole entry): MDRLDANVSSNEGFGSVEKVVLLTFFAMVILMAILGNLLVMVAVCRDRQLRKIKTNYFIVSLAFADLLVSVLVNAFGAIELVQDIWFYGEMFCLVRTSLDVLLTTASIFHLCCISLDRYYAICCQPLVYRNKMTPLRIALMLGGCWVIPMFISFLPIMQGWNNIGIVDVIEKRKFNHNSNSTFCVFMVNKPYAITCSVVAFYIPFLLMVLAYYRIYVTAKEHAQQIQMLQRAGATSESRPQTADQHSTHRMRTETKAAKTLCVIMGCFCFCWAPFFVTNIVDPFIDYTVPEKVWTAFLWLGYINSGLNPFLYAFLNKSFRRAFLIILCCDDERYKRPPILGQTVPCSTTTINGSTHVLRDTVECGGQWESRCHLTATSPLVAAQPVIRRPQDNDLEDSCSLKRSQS

[11] = test system: Mustela putorius furo; assay: Reduction in the latency period to the first episode in ferret at a dose of 0.01 mg/kg, po; format: functional
[12] = test system: Mustela putorius furo; assay: Reduction in the latency period to the first episode in ferret at a dose of 0.5 mg/kg, po; format: functional
[13] = test system: Mustela putorius furo; assay: Reduction in the number of episodes of emesis in 4 ferrets at a dose of 0.5 mg/kg, po; format: functional
[14] = test system: Mustela putorius furo; assay: Reduction in the number of episodes of emesis in ferrets at a dose of 0.01 mg/kg, po; format: functional
[15] = test system: Rattus norvegicus; assay: Time required to achieve 50% recovery of Bezold-Jarisch reflex in 4 rats at a dose of 6 ug/kg, iv; format: functional
[16] = test system: Rattus norvegicus; assay: Percent maximum inhibition against Bezold-Jarisch reflex in 4 rats at a dose of 6 ug/kg, iv, after 5 min; format: functional
[17] = target: Alpha-2 adrenergic receptor (Rattus norvegicus); assay: Affinity at Alpha-2 adrenergic receptor in rat brain
[18] = test system: Rattus norvegicus; assay: Dose required for inhibition of bradycardia induced by a submaximal dose (iv) of 5-HT in 8 rats; format: functional; conditions: read-out: ID50 (the source's name)
[19] = test system: Rattus norvegicus; assay: Dose required for inhibition of bradycardia induced by a submaximal dose (iv) of 5-HT in 3 rats; format: functional; conditions: read-out: ID50 (the source's name)
[20] = test system: Rattus norvegicus; assay: Dose required for inhibition of bradycardia induced by a submaximal dose (iv) of 5-HT in 6 rats; format: functional; conditions: read-out: ID50 (the source's name)
[21] = test system: Rattus norvegicus; assay: Dose required for inhibition of bradycardia induced by a submaximal dose (iv) of 5-HT in 7 rats; format: functional; conditions: read-out: ID50 (the source's name)
[22] = test system: Rattus norvegicus; assay: Time required to achieve 50% recovery of Bezold-Jarisch reflex in 9 rats at a dose of 6 ug/kg, iv; format: functional

SMILES: COc1ccccc1NC(=O)CCc1c[nH]cn1
ED50 [1]: 35 µg/kg

SMILES: COc1ccccc1NC(=O)CCc1[nH]cnc1C
ED50 [1]: 20 µg/kg

SMILES: Cc1nccn1CC1CCc2c(c3ccccc3n2C)C1=O (centres undefined) [ONDANSETRON]
Duration [2]: 14 min
ED50 [3]: 3.6 µg/kg
inhibition in vivo at 0.006 mg/kg [4]: 68%

Activity [5]: inactive
Activity [6]: inactive
Activity [7]: inactive
Activity [8]: inactive
pA2 [9]: 8.1
Activity [10]: inactive
Log Ki [17]: -6.2
SMILES: Cc1[nH]cnc1CCC(=O)N1CC(C)(C)c2ccccc21
Latency time [11]: 22.5 min
Latency time [12]: 90.5 min
Reduction [13]: 1.3
Reduction [14]: 7.7
Duration [15]: 66 min
ED50 [3]: 2.2 µg/kg
inhibition in vivo at 0.006 mg/kg [16]: 91%

SMILES: CN1C2CCC1CC(NC(=O)N1CC(C)(C)c3ccccc31)C2 (centres undefined)
ED50 [18]: 0.67 µg/kg

SMILES: CC1(C)CN(C(=O)CCc2c[nH]cn2)c2ccccc21
ED50 [19]: 4.2 µg/kg

SMILES: Cc1[nH]cnc1CCC(=O)c1nn(C)c2ccccc12
ED50 [20]: 3.1 µg/kg

SMILES: COc1ccccc1NC(=O)NC1CC2CCC(C1)N2C (centres undefined)
ED50 [21]: 2.5 µg/kg

SMILES: CN1C2CCCC1CC(NC(=O)c1nn(C)c3ccccc13)C2 (centres undefined) [GRANISETRON]
Duration [22]: 46 min
